Results: US4935424A, “4 or 5-(substituted piperazinylalkyl)-2-aminothiazoles as antipsychotic agents” (priority 1988, dated 1990)
Read-outs that look alike come from different tables or passages of the source.

What was measured:
dopamine neuron firing = assay: Inhibition of dopamine neuron firing in rats; format: in vivo; details: IP
Procedure: (§1) Thus, the compounds of Formula I were tested for their ability to inhibit locomotor activity in mice according to the assay described in Pharmacol. Biochem. Behav. 1978 (8) 97; for their ability to inhibit haloperidol binding in a receptor binding assay described in Mol. Pharmacol. 1976 (12), 800; for their ability to inhibit brain dopamine synthesis in rats according to the protocol described in Naumyn-Schmiedeberg's Arch. Pharmacol., 1976 (296) 5; and for their ability to inhibit dopamine neuron firing in rats according to the protocol described in Nature New Biology, 1973 (245) 123.

brain dopamine synthesis = assay: Inhibition of brain dopamine synthesis in rats; format: in vivo; details: Rattus norvegicus, IP
Procedure: as §1

haloperidol binding = molecular target: T1, haloperidol binding (Bos taurus, UniProt P20288); assay: Inhibition of haloperidol binding in a receptor binding assay; details: for inhibition at 10 µM: at 10,000 nM
T1 construct: from tissue
T1 sequence (P20288 whole entry): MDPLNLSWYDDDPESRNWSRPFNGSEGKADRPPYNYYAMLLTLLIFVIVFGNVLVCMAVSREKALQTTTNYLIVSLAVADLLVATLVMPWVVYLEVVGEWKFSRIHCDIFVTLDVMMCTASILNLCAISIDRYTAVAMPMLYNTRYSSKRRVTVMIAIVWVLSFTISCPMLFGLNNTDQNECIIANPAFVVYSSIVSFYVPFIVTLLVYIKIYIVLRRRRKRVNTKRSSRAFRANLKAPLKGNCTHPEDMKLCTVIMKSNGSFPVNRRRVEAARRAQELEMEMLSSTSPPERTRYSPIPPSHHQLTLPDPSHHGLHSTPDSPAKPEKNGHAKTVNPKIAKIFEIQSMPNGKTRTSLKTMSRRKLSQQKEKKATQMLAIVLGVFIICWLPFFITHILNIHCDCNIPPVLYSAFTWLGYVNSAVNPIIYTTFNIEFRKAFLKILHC
Procedure: as §1

[1] = test system: locomotor activity in mice; assay: Inhibition of locomotor activity in mice; format: in vivo; details: Mus musculus, IP
Procedure: as §1

[2] = read-out: Inhibition of Haloperidol Binding (IC50 nM)

SMILES	Inhibition of Dopamine Neuron Firing in Rats (dopamine neuron firing; 2.5 mg/kg)	inhibition in vivo at 1 mg/kg (brain dopamine synthesis)	IC50 (haloperidol binding; [2])	ED50 [1]	Inhibition of Dopamine Neuron Firing in Rats (dopamine neuron firing; 10 mg/kg)	inhibition at 10 µM (haloperidol binding)	inhibition in vivo at 10 mg/kg (brain dopamine synthesis)	IC50 (haloperidol binding)
Cc1nc(N)sc1CCCN1CCN(c2ncccn2)CC1 [Example 1, 4-Methyl-5-[3-[4-(2-pyrimidinyl)-1-piperazinyl]-propyl]-2-thiazolamine]	90%	82%	370 nM	6.3 mg/kg				
Nc1nc(CCCCN2CCN(c3ncccn3)CC2)cs1 [Example 1a, 4-[4-[4-(2-Pyrimidinyl)-1-piperazinyl]butyl]-2-thiazolamine]			1060 nM	> 30 mg/kg				
Cc1nc(N)sc1CCN1CCN(c2ccccc2)CC1 [Example 1b, 4-Methyl-5-[2-(4-phenyl-1-piperazinyl)ethyl]-2-thiazolamine]				1.5 mg/kg	80%	100%		
Nc1nc(CCCN2CCN(c3ccccc3)CC2)cs1 [Example 1c, 4-[3-(4-Phenyl-1-piperazinyl)propyl]-2-thiazolamine]				2.4 mg/kg		40%		
Cc1nc(N)sc1CCN1CC=C(c2ccccc2)CC1 [Example 1d, 5-[2-(3,6-dihydro-4-phenyl-1(2H)-pyridinyl)ethyl]-4-methyl-2-thiazolamine]	70%		400 nM	0.88 mg/kg			84%	
Cl.Cl.Nc1nc(CCCN2CC=C(c3ccccc3)CC2)cs1 [Example 1e, 4-[3-(3,6-Dihydro-4-phenyl-1(2H)-pyridinyl)propyl]-2-thiazolamine, dihydrochloride]	78%			1.7 mg/kg			44%	346 nM
Cc1nc(N)sc1CCN1CCN(c2ncccn2)CC1 [Example 1f, 4-Methyl-5-[2-[4-(2-pyrimidinyl)-1-piperazinyl]ethyl]-2-thiazolamine]			118 nM	1.4 mg/kg				
Nc1nc(CCCN2CCN(c3ncccn3)CC2)cs1 [Example 1g, 4-[3-[4-(2-Pyrimidinyl)-1-piperazinyl]-propyl]-2-thiazolamine]			1600 nM	> 30 mg/kg				
Cc1nc(N)sc1CCN1CCN(c2ccccn2)CC1 [Example 1h, 4-Methyl-5-[2-[4-(2-pyridinyl)-1-piperazinyl]ethyl]-2-thiazolamine]	100%	87%	75 nM	1.4 mg/kg				
Nc1nc(CCCN2CCN(c3ccccn3)CC2)cs1 [Example 1i, 4-[3-[4-(2-Pyridinyl)-1-piperazinyl]-propyl]-2-thiazolamine]				7.6 mg/kg		100%	43%	
Cc1nc(N)sc1CCCN1CCN(c2ccccn2)CC1 [Example 1j, 4-Methyl-5-[3-[4-(2-pyridinyl)-1-piperazinyl]propyl]-2-thiazolamine]	98%		249 nM	4.6 mg/kg			100%	
Nc1nc(CCCCN2CCN(c3ccccn3)CC2)cs1 [Example 1k, 4-[4-[4-(2-Pyridinyl)-1-piperazinyl]-butyl]-2-thiazolamine]			488 nM	5.5 mg/kg			63%	
Nc1ncc(CCN2CCN(c3ccccn3)CC2)s1 [Example 2, 5-[2-[4-(2-pyridinyl)-1-piperazinyl]ethyl]-2-thiazolamine]				5.9 mg/kg			92%	
Nc1ncc(CCN2CCN(c3ccccc3)CC2)s1 [Example 2a, 5-[2-(4-Phenyl-1-piperazinyl)ethyl]-2-thiazolamine]				2.6 mg/kg				
Nc1ncc(CCN2CC=C(c3ccccc3)CC2)s1 [Example 2b, 5-[2-(3,6-Dihydro-4-phenyl-1(2H)-pyridinyl)ethyl]-2-thiazolamine]				0.47 mg/kg			25%	
